# Measured values from ChEMBL document CHEMBL1201862, “PubChem BioAssay data set” (2004).
# Activity calls are given as the source filed them.
# What was measured:
# [1] = viability of HCT116 lacking mutant beta-catenin – cell-based, human colon tumor, dose response (AID 1045); assay type: functional;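 note: HCT116 colon tumor cells with beta catenin knocked out; cells exposed to compound for 60 hours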
# [2] = viability of PTEN-deleted HCT116 cells – cell-based, HCT116 PTEN knockout, dose response (AID 1047); assay type: functional;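 note: HCT116 colon tumor cells with PTEN knocked out; cells exposed to compound for 60 hours before readout; potency for loss of cell viability measured by luminescence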
# [3] = target: T1, Heat shock factor protein 1 (Mus musculus, UniProt P38532); assay: decrease of HSF1-responsive luciferase luminescence – cell-based, NIH3T3, dose retest, confirmation (AID 2382); assay type: functional;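 note: NIH3T3 fibroblasts with HSF1-driven luciferase reporter stressed by proteasome inhibitor MG132; luminescence from HSF1-driven luciferase expression after 8 hours of MG132 stress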
# T1 sequence (P38532 whole entry): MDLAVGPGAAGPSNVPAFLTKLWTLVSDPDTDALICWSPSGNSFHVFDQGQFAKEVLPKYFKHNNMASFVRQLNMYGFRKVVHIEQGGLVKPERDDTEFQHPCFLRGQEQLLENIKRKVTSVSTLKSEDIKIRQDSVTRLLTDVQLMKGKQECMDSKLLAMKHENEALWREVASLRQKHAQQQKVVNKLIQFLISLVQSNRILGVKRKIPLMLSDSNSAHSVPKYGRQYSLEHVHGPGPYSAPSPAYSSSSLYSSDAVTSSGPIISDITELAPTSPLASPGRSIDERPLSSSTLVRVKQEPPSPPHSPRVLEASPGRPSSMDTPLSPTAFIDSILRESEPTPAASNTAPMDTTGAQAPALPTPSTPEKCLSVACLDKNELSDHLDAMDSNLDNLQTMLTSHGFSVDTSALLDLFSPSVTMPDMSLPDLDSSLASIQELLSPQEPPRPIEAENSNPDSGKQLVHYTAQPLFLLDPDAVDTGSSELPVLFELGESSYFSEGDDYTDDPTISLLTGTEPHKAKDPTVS
# [4] = luciferase reporter signal suppression in cells – H4 neuroglioma cells, luminescence, dose response (AID 1990); assay type: functional, cell-based
# [5] = alpha-synuclein stem-loop luciferase translation blockers – H4 neuroglioma cells, luminescence, confirmation (AID 1988); assay type: functional, cell-based
# [6] = Luminescence Cell-Based Dose Response HTS to Identify Inhibitors of 5'UTR Stem-Loop Driven Prion Protein mRNA Translation in H4 Neuroglioblastoma Cells. [Related pubchem assays: 1827 (Project Summary), 1813 (Primary HTS)]; assay type: functional
# [7] = tested on: INS1; assay: INS-1E survival protection against cytokine death – cell-based, luminescence, retest, dose response (AID 449756); assay type: functional; settings: Rattus norvegicus;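 note: cell death triggered by IL-1 beta plus TNF-alpha plus IFN-gamma mixture; protective hits raise ATP signal compared with cytokine alone wells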
# [8] = target: T2, Corticotropin-releasing factor receptor 2/Corticotropin-releasing factor-binding protein (Homo sapiens, UniProt P24387+Q13324); assay: Dose Response confirmation of uHTS hits for small molecule antagonists of the CRF-binding protein and CRF-R2 receptor complex.; assay type: functional; settings: read-out: IC50_Mean
# T2 sequence (Q13324 whole entry): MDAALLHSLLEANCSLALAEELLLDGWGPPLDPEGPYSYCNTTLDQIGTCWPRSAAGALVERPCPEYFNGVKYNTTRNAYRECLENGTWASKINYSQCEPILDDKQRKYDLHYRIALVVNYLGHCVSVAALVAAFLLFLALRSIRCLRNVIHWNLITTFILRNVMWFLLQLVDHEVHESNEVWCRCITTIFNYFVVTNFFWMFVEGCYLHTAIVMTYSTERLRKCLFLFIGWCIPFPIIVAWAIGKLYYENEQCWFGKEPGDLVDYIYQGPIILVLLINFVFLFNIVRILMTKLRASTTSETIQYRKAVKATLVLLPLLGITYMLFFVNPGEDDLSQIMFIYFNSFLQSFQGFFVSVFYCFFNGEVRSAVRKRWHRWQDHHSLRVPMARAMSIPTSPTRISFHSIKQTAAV
# T2 sequence (P24387 whole entry): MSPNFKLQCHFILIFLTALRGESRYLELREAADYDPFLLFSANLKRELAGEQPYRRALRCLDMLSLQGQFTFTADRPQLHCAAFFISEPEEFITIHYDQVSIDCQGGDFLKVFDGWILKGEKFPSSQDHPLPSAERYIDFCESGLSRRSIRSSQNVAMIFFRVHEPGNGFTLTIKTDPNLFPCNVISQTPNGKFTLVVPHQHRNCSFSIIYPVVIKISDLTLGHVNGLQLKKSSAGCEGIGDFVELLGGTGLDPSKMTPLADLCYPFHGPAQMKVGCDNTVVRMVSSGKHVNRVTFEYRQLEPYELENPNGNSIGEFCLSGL
# [9] = target: T2, Corticotropin-releasing factor receptor 2/Corticotropin-releasing factor-binding protein; assay: activators of CRF receptor 2 with binding protein – uHTS hits, confirmation (AID 602473); assay type: functional; settings: read-out: EC50_Mean
# [10] = target: Large T antigen (Simian virus 40, UniProt P03070); assay type: functional, Betapolyomavirus macacae;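 note: Confirmatory-stage PubChem screen for compounds that inhibit SV40 T antigen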
# [11] = target: Cytochrome P450 2C9 (Homo sapiens, UniProt P11712)
# [12] = target: T3, Cytochrome P450 1A2 (Homo sapiens, UniProt P05177);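 note: PubChem cytochrome P450 panel assay, CYP1A2 panel member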
# T3 sequence (P05177 whole entry): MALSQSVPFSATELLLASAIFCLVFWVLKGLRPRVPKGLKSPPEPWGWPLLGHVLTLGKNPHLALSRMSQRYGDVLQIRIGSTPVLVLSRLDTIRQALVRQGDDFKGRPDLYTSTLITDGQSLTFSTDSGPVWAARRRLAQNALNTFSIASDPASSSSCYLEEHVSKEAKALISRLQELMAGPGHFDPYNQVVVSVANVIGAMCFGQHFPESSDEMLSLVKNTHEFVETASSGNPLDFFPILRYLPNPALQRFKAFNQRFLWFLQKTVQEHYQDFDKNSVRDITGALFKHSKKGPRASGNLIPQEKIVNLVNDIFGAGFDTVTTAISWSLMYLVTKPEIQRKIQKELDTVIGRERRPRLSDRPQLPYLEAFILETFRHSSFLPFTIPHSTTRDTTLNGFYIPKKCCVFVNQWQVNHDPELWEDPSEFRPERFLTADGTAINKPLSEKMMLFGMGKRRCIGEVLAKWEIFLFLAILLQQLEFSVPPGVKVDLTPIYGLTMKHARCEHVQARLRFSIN
# [13] = target: Cytochrome P450 2C19 (Homo sapiens, UniProt P33261); assay: Cytochrome panel assay with activity outcomes. Panel member name: p450-cyp2c19 Compounds with AC50 equal or less than 10 uM are considered active; assay type: functional; settings: read-out: AC50
# [14] = target: T1, Heat shock factor protein 1; assay: enhancement of HSF1-driven luciferase signal – cell-based, NIH3T3, luminescence, dose retest, confirmation (AID 435004); assay type: functional;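 note: stress induced by proteasome inhibitor MG132 added 30 min after compound; luciferase reporter driven by HSF1 response element in NIH3T3 cells; actives raise luminescence as potentiators of the MG132 stress response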
# [15] = target: T4, Rac GTPase-activating protein 1 (Homo sapiens, UniProt Q9H0H5); assay: blockers of MgcRacGAP-driven Rac1 GTP hydrolysis – biochemical, ADP Hunter fluorescence, primary and confirmatory, confirmation (AID 624330); assay type: functional
# T4 sequence (Q9H0H5 whole entry): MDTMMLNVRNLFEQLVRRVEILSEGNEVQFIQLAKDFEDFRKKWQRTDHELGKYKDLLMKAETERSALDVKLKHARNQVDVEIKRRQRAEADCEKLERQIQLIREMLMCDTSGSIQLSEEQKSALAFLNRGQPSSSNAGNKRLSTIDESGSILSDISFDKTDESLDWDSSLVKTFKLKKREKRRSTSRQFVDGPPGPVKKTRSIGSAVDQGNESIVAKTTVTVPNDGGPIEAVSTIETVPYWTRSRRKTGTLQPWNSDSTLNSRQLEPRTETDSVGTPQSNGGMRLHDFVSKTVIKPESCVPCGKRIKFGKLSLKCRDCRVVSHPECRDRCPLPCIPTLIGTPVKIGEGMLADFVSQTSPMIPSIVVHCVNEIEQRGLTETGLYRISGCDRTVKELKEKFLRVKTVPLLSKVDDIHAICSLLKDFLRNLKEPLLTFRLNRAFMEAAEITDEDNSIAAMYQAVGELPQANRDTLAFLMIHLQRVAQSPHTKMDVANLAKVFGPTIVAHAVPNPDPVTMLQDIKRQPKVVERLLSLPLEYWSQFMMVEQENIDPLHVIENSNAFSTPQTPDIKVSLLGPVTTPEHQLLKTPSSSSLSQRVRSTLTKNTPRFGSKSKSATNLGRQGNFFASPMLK
# Large T antigen, sequence (P03070 whole entry): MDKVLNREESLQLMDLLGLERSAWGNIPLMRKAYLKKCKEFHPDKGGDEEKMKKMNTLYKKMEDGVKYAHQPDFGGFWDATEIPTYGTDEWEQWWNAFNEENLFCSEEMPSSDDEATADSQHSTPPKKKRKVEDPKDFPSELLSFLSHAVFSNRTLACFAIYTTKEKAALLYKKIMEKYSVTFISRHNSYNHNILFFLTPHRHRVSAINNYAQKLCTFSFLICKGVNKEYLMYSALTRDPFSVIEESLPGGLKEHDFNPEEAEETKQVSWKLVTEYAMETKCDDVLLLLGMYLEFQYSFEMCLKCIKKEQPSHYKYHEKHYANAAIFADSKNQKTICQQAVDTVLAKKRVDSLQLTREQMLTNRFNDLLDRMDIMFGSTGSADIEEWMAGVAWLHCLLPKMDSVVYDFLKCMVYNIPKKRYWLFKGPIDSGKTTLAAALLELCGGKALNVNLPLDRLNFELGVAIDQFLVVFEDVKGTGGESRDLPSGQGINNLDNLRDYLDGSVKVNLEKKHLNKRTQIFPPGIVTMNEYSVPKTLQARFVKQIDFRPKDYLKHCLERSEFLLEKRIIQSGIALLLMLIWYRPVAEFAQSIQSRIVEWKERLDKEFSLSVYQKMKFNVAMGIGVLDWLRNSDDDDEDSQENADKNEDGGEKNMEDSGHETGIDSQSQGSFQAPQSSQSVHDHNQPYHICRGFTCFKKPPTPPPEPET
# Cytochrome P450 2C9, sequence (P11712 whole entry): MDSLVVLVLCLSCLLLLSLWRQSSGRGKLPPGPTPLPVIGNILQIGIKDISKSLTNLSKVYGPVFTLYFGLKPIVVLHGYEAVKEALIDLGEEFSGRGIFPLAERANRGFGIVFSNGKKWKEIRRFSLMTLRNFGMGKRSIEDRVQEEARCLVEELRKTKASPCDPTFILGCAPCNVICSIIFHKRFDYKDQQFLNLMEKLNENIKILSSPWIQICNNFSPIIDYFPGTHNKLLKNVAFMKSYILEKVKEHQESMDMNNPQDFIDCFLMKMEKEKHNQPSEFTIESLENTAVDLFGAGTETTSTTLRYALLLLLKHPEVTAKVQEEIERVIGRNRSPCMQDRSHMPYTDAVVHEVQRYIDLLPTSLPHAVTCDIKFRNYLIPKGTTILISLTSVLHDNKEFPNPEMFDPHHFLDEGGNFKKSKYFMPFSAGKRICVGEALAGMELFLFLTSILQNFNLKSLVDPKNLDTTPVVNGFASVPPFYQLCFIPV
# Cytochrome P450 2C19, sequence (P33261 whole entry): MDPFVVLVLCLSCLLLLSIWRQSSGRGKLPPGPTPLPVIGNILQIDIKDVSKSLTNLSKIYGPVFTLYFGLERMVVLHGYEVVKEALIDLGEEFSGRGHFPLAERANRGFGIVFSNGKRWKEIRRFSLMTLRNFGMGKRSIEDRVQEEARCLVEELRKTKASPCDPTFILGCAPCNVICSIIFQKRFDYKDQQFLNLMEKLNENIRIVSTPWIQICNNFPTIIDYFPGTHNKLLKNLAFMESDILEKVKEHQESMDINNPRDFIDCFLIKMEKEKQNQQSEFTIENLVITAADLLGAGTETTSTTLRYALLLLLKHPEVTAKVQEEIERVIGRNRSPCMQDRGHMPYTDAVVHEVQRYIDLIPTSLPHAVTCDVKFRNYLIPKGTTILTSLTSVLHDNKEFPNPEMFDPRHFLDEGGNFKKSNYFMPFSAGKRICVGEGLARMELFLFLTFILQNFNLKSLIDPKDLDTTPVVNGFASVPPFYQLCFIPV
Compound,EC50 [1],EC50 [2],IC50 [8],EC50 [9],further results
CCc1nn2cc(C(=O)c3cc(Cl)ccc3O)cnc2c1-c1ccc(F)cc1,28.3 µM (active),30.7 µM (active),,,
Cc1cccc2sc(NNC(=O)C3COc4ccccc4O3)nc12 (stereo not given),36.7 µM (active),38.9 µM (active),,,EC50 [3]: > 195 µM (not active)
COc1ccc(C2=Nn3c(nnc3-c3ccncc3)SC2)cc1OC,336 µM (active),19.7 µM (active),,,EC50 [4]: 12.4 µM (active); EC50 [5]: 50.8 µM (active); EC50 [6]: 14.2 µM (active)
CCCCOC(=O)c1ccc(NC(c2ccc(C)cc2)P(=O)(OC)OC)cc1 (stereo not given),,,> 47.1 µM (inactive),> 53 µM (inactive),AC50 [7]: 30.8 µM (active)
COc1cc(/C=C(\C#N)C(=O)N2CCCCC2)ccc1O,,,,,IC50 [10]: 13 µM (active)
CSCSC1=C(C#N)C(c2ccccc2Cl)C(C(C)=O)=C(C)N1 (stereo not given),,,> 47.1 µM (inactive),> 53 µM (inactive),
COc1ccccc1CN(Cc1cc2cc(C)cc(C)c2nc1O)Cc1nnnn1CC1CCCO1 (stereo not given),54.9 µM (active),44.9 µM (active),,,AC50 [11]: 14.1 µM (inconclusive); AC50 [12]: 20 µM (inconclusive)
CC1C(=O)C(C)C(c2cccs2)NC1c1cccs1 (stereo not given),,,> 47.1 µM (inactive),> 53 µM (inactive),
Cc1ccc(NC(=O)/C(=C\c2cccc([N+](=O)[O-])c2)NC(=O)c2cccs2)cc1,24.1 µM (active),22.8 µM (active),,,AC50 [11]: 39.8 µM (inconclusive); AC50 [13]: 17.8 µM (inconclusive)
CCOc1ccc2ncc(S(=O)(=O)c3ccc(C)cc3)c(N3CCC4(CC3)OCCO4)c2c1,74 µM (active),40.5 µM (active),,,EC50 [14]: > 260 µM (inactive)
FC(F)(F)c1nnc2sc(-c3cccs3)nn12,,,> 47.1 µM (inactive),> 53 µM (inactive),
CCOc1ccc(-n2c(=O)c3c4c(sc3n(CC(=O)NCc3ccco3)c2=O)CCC4)cc1,27.7 µM (active),30.2 µM (active),,,
COC(=O)C(OC(=O)c1ccccc1)C(C)Br (stereo not given),,,> 47.1 µM (inactive),> 53 µM (inactive),
COc1ccc(/C=C2\CCC(C3CCCC3)C2=O)cc1OC (stereo not given),,,> 47.1 µM (inactive),> 53 µM (inactive),
CN(C)c1ncnc2c1N=C1CC(C)(C)CC(NCCCC(=O)O)=C1S2,,,> 47.1 µM (inactive),> 53 µM (inactive),IC50 [15]: 78.8 µM (active)
Cc1cc2nc(-c3ccc(SCC(=O)N4CCc5ccccc54)nc3)[nH]c2cc1C,7.55 µM (active),6.92 µM (active),,,AC50 [12]: 3.16 µM (inconclusive)
Cc1nn(-c2ccc([N+](=O)[O-])cc2)c(N)c1-c1ccccc1,,,> 47.1 µM (inactive),> 53 µM (inactive),

Compound,EC50 [1],EC50 [2],IC50 [8],EC50 [9],further results
CCOC(=O)c1c(C)[nH]c(C)c1C(=O)COC(=O)/C=C/c1ccc(Cl)cc1,,,> 47.1 µM (inactive),> 53 µM (inactive),
COc1ccc(N2C(=O)/C(=C\NNS(=O)(=O)c3ccc(C)cc3)c3ccccc3C2=O)cc1OC,,40.4 µM (active),,> 53 µM (inactive),
CCCN1CCN(C2CCCCC2NS(=O)(=O)c2ccc(Cl)cc2)CC1 (stereo not given),,,> 47.1 µM (inactive),> 53 µM (inactive),
CC(C)CCOP(=O)(c1ccc(N(C)C)cc1)C(Nc1ccccc1)c1ccc(N(C)C)cc1 (stereo not given),,,> 47.1 µM (inactive),> 53 µM (inactive),
NNC(=O)C(=O)Nc1ccc(O)cc1,,,,,IC50 [10]: 9.75 µM (active)
COc1cccc(C2C(C(=O)c3ccc(C)o3)=C(O)C(=O)N2CCN2CCOCC2)c1OC (stereo not given),,,> 47.1 µM (inactive),> 53 µM (inactive),
Cc1ccc(S(=O)(=O)N2CCC(c3nc4c(nnn4Cc4ccccc4)c(=O)[nH]3)CC2)cc1,,,> 47.1 µM (inactive),> 53 µM (inactive),
CCN(CC(=O)Nc1ccc(OC)cc1)C(=O)c1cc(S(=O)(=O)N2CCOCC2)ccc1N1CCCC1,,,> 47.1 µM (inactive),> 53 µM (inactive),
CC1CCN(C(=O)c2nc[nH]c2C(=O)N[C@@H](C)C(=O)OC(C)(C)C)CC1,,,> 47.1 µM (inactive),> 53 µM (inactive),
O=[N+]([O-])c1ccccc1C=NNC(=S)NN=Cc1ccccc1[N+](=O)[O-],,,> 47.1 µM (inactive),> 53 µM (inactive),
CC1=C(C(=O)Nc2ccccc2C)C(c2ccc(C)o2)n2c(s/c(=C/c3ccccc3)c2=O)=N1 (stereo not given),442 µM (active),347 µM (active),,,
CN(C)c1ccc(/C=N/c2ccc(N(C)C)cc2)cc1,524 µM (active),28.5 µM (active),,,
CCC/C(=N/CC(=O)O)C1=C(O)C(C(=O)OC)C(C)(C)CC1=O (stereo not given),,,> 47.1 µM (inactive),> 53 µM (inactive),
COC(=O)c1ccc(/C(O)=C(\C#N)c2nc3ccccc3s2)cc1,,,3.93 µM (active),> 53 µM (inactive),
Cc1cc(SCC(=O)N/N=C/c2ccc(O)c(O)c2)nc2ccccc12,,,,,IC50 [10]: 6.59 µM (active)
COc1ccc(C2CC(c3cccs3)=NN2C(=O)c2ccccc2)cc1OC (stereo not given),,,> 47.1 µM (inactive),> 53 µM (inactive),
